{
  "source": "patent US20090163442A1",
  "about": "“TREATMENT OF CANCER WITH 2-DEOXYGALACTOSE” (priority 2007, published 2009)",
  "key": {"[1]": {"test_system": "tumor cell lines and types", "conditions": "Laszlo et al. 1958; cited from earlier work"}, "tumor": {"test_system": "tumor", "conditions": "cited from earlier work; for survival time / tumor growth: animal studies, Laszlo et al. 1960"}, "normal liver tissue": {"test_system": "normal liver tissue", "assay": "Uptake of 2-Fluoro-2-deoxygalactose by normal liver tissue"}, "[2]": {"test_system": "hepatocellular carcinoma cell lines", "assay": "Sulforhodamine B (SRB) growth inhibition assay", "type": "cell-based, Human", "conditions": "continuous treatment 72 h", "experimental": "The cells are cultured at 37 degrees C. in a humidified atmosphere containing 5% CO2. For passaging, cells grown in 75 cm2 flasks (6070% confluency) are washed with PBS and dissolved from the flasks with trypsin (Gibco BRL) before being plated. Ten thousand cells are plated into each well of a 96-well microtiter plate in 100 ul of medium. The cells are then incubated for 24 h at 37 degrees C. in a humidified atmosphere containing 5% CO2 prior to exposure to the 2-DG analog or other anti-cancer agent. Cultures are treated with a range of concentrations of 2-DGaI or a 2-DGaI analog solubilized in cell culture medium, diluted 100× to the desired concentration, continuously for 72 h. Docetaxel (Taxotere™, Aventis Pharmaceuticals, Inc.) solubilized in 100% DMSO and diluted 1000× to the desired concentration, is used as a positive control. The sulforhodamine B (SRB) assay, a dye-based method for determining cell number by virtue of SRB binding to basic amino acids of cellular macromolecules, is employed to assess the growth inhibitory activity of 2-DGal or a 2-DGal analog."}, "[3]": {"test_system": "liver tumor serially passaged in nude mice", "assay": "Tumor growth delay study in a mouse xenograft model", "type": "in vivo", "conditions": "in combination with cisplatin (1 mg/kg i.p. days 1 to 5); 750 mg/kg orally twice daily; versus cisplatin alone", "excerpt": "The efficacy of 2-DGaI or a 2-DGaI analog in combination with cisplatin can be compared with cisplatin alone in a tumor growth delay study in a mouse xenograft model. Small pieces of tumor, such as a liver tumor serially passaged in nude mice, are implanted subcutaneously in nude mice, and the tumors allowed to grow to 25 mm^2. Mice are then randomized to receive no treatment, treatment with 2-DGal or a 2-DGal analog alone, treatment with cisplatin alone, or treatment with both 2-DGal or a 2-DGaI analog and cisplatin. Cisplatin is dosed i.p. at 1 mg/kg on days 1 to 5.2-DGaI or a 2-DGaI analog is dosed orally at 750 mg/kg, twice daily, for the duration of the experiment. Each mouse is sacrificed when its tumor volume reaches 1000 mg."}, "CD 1 mice": {"test_system": "CD 1 mice", "assay": "Liver toxicity study of 2-Fluoro-2-deoxygalactose, serum chemistry and clinical observations", "type": "in vivo", "conditions": "for Alt (alanine aminotransferase) / Ast (aspartate aminotransferase) / Tbili (total bilirubin): about 0.2 ml, male CD-1 mice, Day 2, individual animals", "experimental": "The objective of this study was to evaluate the liver toxicity of 2-Fluoro-2-deoxygalactose when administered via intraperitoneal or intravenous injection to CD 1 mice. The study was initiated on Jan. 11, 2007, and consisted of three groups with three (3) male mice per group. On Day 1, each mouse GROUP was administered either about 0.2 ml of 10% 2 Fluoro 2 Deoxygalactose, intraperitoneally, about 0.2 ml of 10% 2 Fluoro 2 Deoxygalactose, intravenously, or about 0.2 ml of sterile 0.9% sodium chloride for injection, USP, intravenously. Criteria for evaluation included clinical observations and limited serum chemistry parameters (alanine aminotransferase [ALT], aspartate aminotransferase [AST], and total bilirubin). On Day 2, all animals were euthanized, blood was collected, and livers were collected and stored for potential histopathological evaluation.\nClinical observations were performed at least once daily."}},
  "note": "Where “and” joins values, the source holds several entries; their conditions need not be identical. Equal values may be shown once.",
  "data": [
    {"smiles": "O=CC[C@@H](O)[C@H](O)[C@H](O)CO", "note": "[2-DG, 2-Deoxy-D-glucose, reference compound]", "values": [
      {"measurement": "inhibition of glycolysis", "setting": "[1]", "result": "inhibit glycolysis"},
      {"measurement": "tumor growth in animal models", "setting": "tumor; Sokoloff 1955, Ball 1957", "result": "retard tumor growth"},
      {"measurement": "survival time", "setting": "tumor", "result": "modest prolongation of survival time"},
      {"measurement": "tumor growth", "setting": "tumor", "result": "inhibition of tumor growth"}
    ]},
    {"smiles": "O=C[C@H](O)[C@@H](O)[C@@H](O)[C@H](O)CO", "note": "[galactose]", "values": [
      {"measurement": "inhibition of uptake of 2-Fluoro-2-deoxygalactose", "setting": "normal liver tissue", "result": "markedly inhibits the uptake"}
    ]},
    {"smiles": "O=CC[C@@H](O)[C@@H](O)[C@H](O)CO", "note": "[2-DGal, 2-Deoxy-D-galactose]", "values": [
      {"measurement": "inhibition of glycolysis", "setting": "[1]", "result": "inhibit glycolysis"},
      {"measurement": "survival time", "setting": "tumor", "result": "modest prolongation of survival time"},
      {"measurement": "tumor growth", "setting": "tumor", "result": "inhibition of tumor growth"},
      {"measurement": "efficacy relative to 2-DG", "setting": "tumor; model systems of Laszlo et al. 1960", "result": "less efficacious"},
      {"measurement": "growth of hepatocellular carcinoma cell lines", "setting": "[2]", "result": "inhibits the growth"},
      {"measurement": "tumor growth delay", "setting": "[3]", "result": "delays tumor growth significantly more than treatment with cisplatin alone"}
    ]},
    {"smiles": "O=C[C@H](F)[C@@H](O)[C@@H](O)[C@H](O)CO", "note": "[2-Fluoro-2-deoxygalactose, 2-fluoro-2-deoxy-D-galactose]", "values": [
      {"measurement": "concentration of transaminases", "setting": "CD 1 mice; CD1 mice, intraperitoneally", "result": "increases in concentration of transaminases"},
      {"measurement": "Alt (alanine aminotransferase)", "setting": "CD 1 mice; Group 2, 10% 2-Fluoro-2-deoxygalactose intraperitoneally", "result": "109 U/L and 73 U/L and 72 U/L"},
      {"measurement": "Ast (aspartate aminotransferase)", "setting": "CD 1 mice; Group 2, 10% intraperitoneally", "result": "234 U/L and 114 U/L and 118 U/L"},
      {"measurement": "Tbili (total bilirubin)", "setting": "CD 1 mice; Group 2, 10% intraperitoneally", "result": "0.2 mg/dL (2×) and 0.3 mg/dL"},
      {"measurement": "Alt (alanine aminotransferase)", "setting": "CD 1 mice; Group 3, 10% 2-Fluoro-2-deoxygalactose intravenously", "result": "45 U/L and 124 U/L and 30 U/L"},
      {"measurement": "Ast (aspartate aminotransferase)", "setting": "CD 1 mice; Group 3, 10% intravenously", "result": "112 U/L and 116 U/L and 52 U/L"},
      {"measurement": "Tbili (total bilirubin)", "setting": "CD 1 mice; Group 3, 10% intravenously", "result": "0.2 mg/dL (2×) and 0.1 mg/dL"},
      {"measurement": "gross pathology finding", "setting": "CD 1 mice; intraperitoneal administered group", "result": "gross pathology finding of a single animal"},
      {"measurement": "rise in ALT and AST over normal animals", "setting": "CD 1 mice; intraperitoneal group, versus the two expected controls of Group 1", "result": "2-3 ×"},
      {"measurement": "unscheduled deaths", "setting": "CD 1 mice; intraperitoneal or intravenous single injection, CD 1 mice", "result": "no unscheduled deaths"},
      {"measurement": "test article related clinical findings", "setting": "CD 1 mice; intraperitoneal or intravenous single injection, clinical observations at least once daily", "result": "no adverse test article related clinical findings"},
      {"measurement": "elevated enzymes (ALT, AST)", "setting": "CD 1 mice; intravenous group, at 24 hours", "result": "one animal with elevated enzymes at 24 hours and two that has returned to normal"}
    ]}
  ]
}
